Columns and labels:
[1] = system: Colo205; assay: Cell-based proliferation assay for determination of GI50 values, colon cancer cell line; conditions: Homo sapiens, COLO 205; 96 h treatment, cyquant cell proliferation assay; read-out: Cellular activities GI50, Colo205
Experimental: (§1) Cell-based Proliferation assay for determination of GI50 values
(§2) Three different cancer cell lines were obtained from ATCC: Human colon cancer cell line (Colo205), human breast cancer cell lines (MDA-MB435), and human lung cancer cell line (NCl-H522). Colo205 cells and NCl-H522 were cultivated in RPMI 1640 containing 2 mM
(§3) L-Glutamine, 5% FBS, 1.0 mM Na Pyruvate. MDA-MB435 cells were cultivated in DMEM containing 2 mM L-Glutamine, 5% FBS. Colo205 cells were seeded in 96-wells plate at 2000 and 5000 cells per well respectively. MDA-MB435 and NCl-H522 cells were seeded in 96-wells plate at 6000 cells per well. The plates were incubated at 37° C., 5% CO2, for 24 h. Cells were treated with compounds at various concentrations for 96 h. Cell growth was then monitored using cyquant cell proliferation assay (Invitrogen Pte Ltd). Dose response curves were plotted to determine GI50 values for the compounds using XL-fit (ID Business Solution, Emeryville, Calif.).

[2] = system: NCI H552; assay: Cell-based proliferation assay for determination of GI50 values, lung cancer cell line; conditions: Homo sapiens; 96 h treatment, cyquant cell proliferation assay; read-out: Cellular activities GI50, NCI H552
Experimental: as §1, §2, §3

- GI50 [1]: 5.47 µM
Compound: CC(C)(C)OC(=O)N1CCN(c2ccc(C(=O)Nc3nc(-c4ccc(CC(=O)NO)s4)cs3)cc2)CC1 [Example 9]
- GI50 [2]: 3.01 µM
